We go through 9 molecules from ChEMBL document CHEMBL1201862, “PubChem BioAssay data set” (2004).

A word on the AC50: it is the concentration at which the activity in the assay is half-maximal. As usually defined, the EC50 is the concentration giving half of the maximal effect. The IC50 is the concentration needed to halve the response being measured.

SMILES strings stand for the structures. Active and inactive are the calls of the source. Where only a bound is given, the exact number is not on record here.

Assay [1] is described as follows: Luminescence Cell-Based Dose Retest to Confirm Inhibitors of Cancer Stem Cells. [Related pubchem assays (depositor defined):AID2717, AID2721]. In kind it is functional. The settings on record: Homo sapiens.
In assay [2] the target is T1, Heat shock factor protein 1 (Mus musculus, UniProt P38532).
T1 sequence (P38532 whole entry): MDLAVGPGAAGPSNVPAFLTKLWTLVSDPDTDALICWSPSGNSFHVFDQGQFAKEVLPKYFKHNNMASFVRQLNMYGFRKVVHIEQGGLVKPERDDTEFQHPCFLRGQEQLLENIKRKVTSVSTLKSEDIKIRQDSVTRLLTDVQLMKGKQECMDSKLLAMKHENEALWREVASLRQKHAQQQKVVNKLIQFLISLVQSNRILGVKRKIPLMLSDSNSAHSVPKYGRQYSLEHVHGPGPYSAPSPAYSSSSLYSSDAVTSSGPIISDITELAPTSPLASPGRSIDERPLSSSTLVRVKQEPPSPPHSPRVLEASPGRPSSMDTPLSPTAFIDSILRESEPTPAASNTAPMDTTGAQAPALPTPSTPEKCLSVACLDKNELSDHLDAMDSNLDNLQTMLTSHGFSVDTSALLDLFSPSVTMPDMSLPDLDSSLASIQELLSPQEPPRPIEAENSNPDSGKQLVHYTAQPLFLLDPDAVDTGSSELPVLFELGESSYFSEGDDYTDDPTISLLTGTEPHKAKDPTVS
Kind of assay: HSF1 potentiators in luciferase reporter cells, confirmation, cell-based, NIH3T3, luminescence, dose retest (AID 435004).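 Note: stress induced by proteasome inhibitor MG132 added 30 min after compound; luciferase reporter driven by HSF1 response element in NIH3T3 cells; actives raise luminescence as potentiators of the MG132 stress response.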 In kind it is functional. Background: Reporter assays use an easily measured gene product as a stand-in for the process of interest.

Assay [3] is described as follows: cytotoxicity in HMLE control line with eGFP shRNA, dose response, counter-screen for HMLE_sh_ECad selective toxicity project, cell-based, HMLE_sh_eGFP, luminescence (AID 463074).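 Note: HMLE human mammary epithelial cells expressing control shRNA against eGFP.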 In kind it is functional, Homo sapiens. For orientation: The purpose of a counterscreen is to sort out artefacts and off-target activity.
In another assay the test system is Escherichia coli. The assay can be described thus: microbe, parasite or virus in culture.
The target of assay [4] is Latent membrane protein 1 (Human herpesvirus 4 (strain B95-8), UniProt P03230). The assay can be described thus: TES1-eGFP NF-kB reporter inhibition versus Tet-On dsRED, dose response, selectivity assay for LMP1 NF-kB inhibitor project, imaging, HEK293T, dual-color eGFP/dsRED, cherry-picks (AID 588398). In kind it is functional, cell-based.
Assay [5] in a line: inhibitors of firefly luciferase expression or activity, dose response, H4 neuroglioma cells, luminescence (AID 1990). In kind it is functional, cell-based.
A short description of assay [6]: Luminescence Cell-Based Dose Response HTS to Identify Inhibitors of 5'UTR Stem-Loop Driven Prion Protein mRNA Translation in H4 Neuroglioblastoma Cells. [Related pubchem assays: 1827 (Project Summary), 1813 (Primary HTS)]. In kind it is functional.
Assay [7] in a line: inhibitors of SNCA 5'UTR-driven reporter translation, confirmation, H4 neuroglioma cells, luminescence (AID 1988). In kind it is functional, cell-based.
The nature of assay [8]: microbe, parasite or virus in culture. In kind it is functional. The settings on record: Mycobacterium tuberculosis.
Another assay concerns the target CAAX prenyl protease 2 (Homo sapiens, UniProt Q9Y256). Kind of assay: human Rce1 protease inhibitors, dose response, biochemical, yeast membranes, quenched-peptide fluorescence, cherry-pick (AID 588849).
The subject of assay [9] is BJ. The assay can be described thus: cytotoxicity toward BJ-TERT fibroblasts, dose response, cell-based, RAS-independent, luminescence (AID 1933). In kind it is functional. The settings on record: Homo sapiens.
In assay [10] the target is T1, Heat shock factor protein 1. The assay can be described thus: inhibition of MG132-induced HSE-luciferase signal, confirmation, cell-based, NIH3T3, luminescence, dose retest (AID 2382).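 Note: NIH3T3 fibroblasts with HSF1-driven luciferase reporter stressed by proteasome inhibitor MG132; luminescence from HSF1-driven luciferase expression after 8 hours of MG132 stress.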 In kind it is functional.
The subject of assay [11] is BJ. The assay can be described thus: cells. In kind it is functional, cell-based. The settings on record: Homo sapiens.
For assay [12], the system named is BJ. Kind of assay: cytotoxicity toward BJ-TERT-LT-ST fibroblasts, dose response, cell-based, RAS-independent, luminescence (AID 1935).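 Note: BJ fibroblasts immortalized with TERT plus LT and ST oncogenes.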 In kind it is functional. The settings on record: Homo sapiens.
The nature of assay [13]: cytotoxicity toward DRD oncogenic fibroblasts, dose response, cell-based, non-viral oncogenic, luminescence (AID 1934). In kind it is functional. The settings on record: Homo sapiens.
In assay [14] the test system is BJ. Kind of assay: cytotoxicity toward Ras-transformed BJeLR fibroblasts, dose response, cell-based, alamar blue fluorescence, cherrypicked samples (AID 2631).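 Note: confirmatory dose-response assay in RAS-dependent BJ fibroblasts engineered with TERT, LT and ST, with cytotoxicity read by fluorescence.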 In kind it is functional. The note with it: Homo sapiens. A general note: The colour change of resazurin is a common sign of viable cells or microbes.
The target in another assay is Phospholipase D1 (Homo sapiens, UniProt Q13393). The assay can be described thus: PLD1 inhibitor potency in cells, dose response (AID 602151).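 Note: cellular PLD1 assay in Calu-1 cells stimulated with PMA.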 In kind it is functional.
The target in another assay is Phospholipase D2 (Homo sapiens, UniProt O14939). Kind of assay: PLD2 inhibitor potency in cells, dose response (AID 602147).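 Note: cellular assay in HEK293 cells overexpressing GFP-tagged PLD2.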 In kind it is functional.
In another assay the target is Nonstructural protein 1 (Influenza A virus, UniProt Q194T2). In kind it is functional, Influenza A virus (A/California/07/2009(H1N1)).
Chain of Nonstructural protein 1 (Q194T2 whole entry): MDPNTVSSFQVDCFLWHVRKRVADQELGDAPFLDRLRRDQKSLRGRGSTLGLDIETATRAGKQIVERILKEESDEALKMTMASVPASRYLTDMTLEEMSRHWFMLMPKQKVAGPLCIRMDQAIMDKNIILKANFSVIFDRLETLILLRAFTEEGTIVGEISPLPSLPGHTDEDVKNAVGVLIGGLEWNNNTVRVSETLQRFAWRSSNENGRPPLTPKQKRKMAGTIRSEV

Chain of Phospholipase D2 (O14939 whole entry): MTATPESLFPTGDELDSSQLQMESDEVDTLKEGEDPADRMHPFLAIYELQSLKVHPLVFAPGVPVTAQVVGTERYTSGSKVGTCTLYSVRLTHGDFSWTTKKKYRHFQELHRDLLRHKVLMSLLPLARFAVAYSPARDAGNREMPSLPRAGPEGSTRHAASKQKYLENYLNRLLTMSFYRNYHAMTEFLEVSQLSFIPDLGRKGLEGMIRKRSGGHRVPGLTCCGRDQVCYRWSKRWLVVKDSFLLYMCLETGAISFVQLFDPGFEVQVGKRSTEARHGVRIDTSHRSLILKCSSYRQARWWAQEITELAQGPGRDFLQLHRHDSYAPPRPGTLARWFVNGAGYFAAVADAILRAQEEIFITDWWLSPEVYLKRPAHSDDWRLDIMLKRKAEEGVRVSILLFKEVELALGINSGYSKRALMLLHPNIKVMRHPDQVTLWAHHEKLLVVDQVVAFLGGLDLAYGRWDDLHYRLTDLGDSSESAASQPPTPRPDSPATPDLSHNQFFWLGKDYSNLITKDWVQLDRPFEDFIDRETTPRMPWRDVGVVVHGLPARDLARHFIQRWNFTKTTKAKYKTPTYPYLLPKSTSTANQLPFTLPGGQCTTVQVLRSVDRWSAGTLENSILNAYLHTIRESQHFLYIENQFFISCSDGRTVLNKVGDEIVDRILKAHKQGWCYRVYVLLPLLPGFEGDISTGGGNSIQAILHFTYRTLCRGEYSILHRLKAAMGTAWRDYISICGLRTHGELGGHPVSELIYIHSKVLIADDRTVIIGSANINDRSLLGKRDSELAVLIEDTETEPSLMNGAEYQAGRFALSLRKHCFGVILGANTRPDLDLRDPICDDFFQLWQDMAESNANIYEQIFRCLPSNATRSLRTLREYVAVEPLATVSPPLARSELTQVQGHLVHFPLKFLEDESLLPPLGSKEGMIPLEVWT
Chain of Phospholipase D1 (Q13393 whole entry): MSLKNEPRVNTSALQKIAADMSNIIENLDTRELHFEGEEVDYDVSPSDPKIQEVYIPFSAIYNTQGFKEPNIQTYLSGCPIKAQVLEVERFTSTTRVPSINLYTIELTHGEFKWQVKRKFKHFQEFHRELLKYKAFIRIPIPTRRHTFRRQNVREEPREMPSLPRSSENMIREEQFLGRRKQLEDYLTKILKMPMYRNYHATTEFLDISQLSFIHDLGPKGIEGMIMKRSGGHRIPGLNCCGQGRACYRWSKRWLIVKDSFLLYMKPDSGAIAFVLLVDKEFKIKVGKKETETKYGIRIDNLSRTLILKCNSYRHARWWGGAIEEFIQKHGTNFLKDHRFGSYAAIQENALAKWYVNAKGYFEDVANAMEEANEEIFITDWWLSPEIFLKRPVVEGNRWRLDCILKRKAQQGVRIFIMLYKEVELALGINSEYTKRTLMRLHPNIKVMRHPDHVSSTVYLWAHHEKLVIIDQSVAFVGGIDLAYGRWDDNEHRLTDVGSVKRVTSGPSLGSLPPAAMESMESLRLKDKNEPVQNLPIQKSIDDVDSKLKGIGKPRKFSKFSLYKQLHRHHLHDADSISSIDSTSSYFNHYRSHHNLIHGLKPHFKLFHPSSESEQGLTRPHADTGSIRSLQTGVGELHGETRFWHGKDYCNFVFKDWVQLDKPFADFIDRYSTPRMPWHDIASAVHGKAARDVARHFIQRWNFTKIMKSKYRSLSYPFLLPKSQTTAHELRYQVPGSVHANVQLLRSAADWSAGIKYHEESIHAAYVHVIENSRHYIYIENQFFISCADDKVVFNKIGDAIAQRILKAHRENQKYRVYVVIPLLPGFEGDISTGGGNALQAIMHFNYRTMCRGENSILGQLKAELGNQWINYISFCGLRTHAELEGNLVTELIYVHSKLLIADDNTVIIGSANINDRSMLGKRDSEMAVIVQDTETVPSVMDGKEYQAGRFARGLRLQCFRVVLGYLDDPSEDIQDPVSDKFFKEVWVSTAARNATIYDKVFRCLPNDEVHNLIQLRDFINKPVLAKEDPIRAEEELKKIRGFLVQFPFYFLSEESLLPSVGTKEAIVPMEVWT
Chain of Latent membrane protein 1 (P03230 whole entry): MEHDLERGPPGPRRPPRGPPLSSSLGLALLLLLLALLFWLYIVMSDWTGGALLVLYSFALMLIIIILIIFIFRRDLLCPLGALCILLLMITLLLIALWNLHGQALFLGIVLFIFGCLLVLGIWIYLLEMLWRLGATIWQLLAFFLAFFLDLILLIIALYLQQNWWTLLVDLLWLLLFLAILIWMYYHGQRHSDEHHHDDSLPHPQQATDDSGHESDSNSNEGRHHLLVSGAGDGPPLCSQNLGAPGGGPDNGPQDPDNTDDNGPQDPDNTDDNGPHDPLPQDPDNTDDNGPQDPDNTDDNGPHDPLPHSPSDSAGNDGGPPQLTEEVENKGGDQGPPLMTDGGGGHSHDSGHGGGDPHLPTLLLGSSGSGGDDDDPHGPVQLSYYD
Chain of CAAX prenyl protease 2 (Q9Y256 whole entry): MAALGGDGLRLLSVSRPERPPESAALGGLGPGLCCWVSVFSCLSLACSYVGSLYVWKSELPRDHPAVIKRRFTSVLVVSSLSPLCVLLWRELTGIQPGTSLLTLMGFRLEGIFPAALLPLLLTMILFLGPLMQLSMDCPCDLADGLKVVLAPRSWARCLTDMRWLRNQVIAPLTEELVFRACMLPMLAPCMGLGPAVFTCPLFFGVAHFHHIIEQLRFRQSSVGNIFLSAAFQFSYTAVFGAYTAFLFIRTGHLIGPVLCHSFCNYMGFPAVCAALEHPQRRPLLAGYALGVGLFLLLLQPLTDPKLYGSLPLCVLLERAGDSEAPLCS

With `O=C1C2CC=CCC2C(=O)N1c1ccc(NCCc2ccccc2)c([N+](=O)[O-])c1` (stereo not given), the AC50 is 0.209 µM (active) in [1] and 36.3 µM (active) in assay [3]. In addition, the EC50 in assay [2] was 13.4 µM (active).

For `Cc1c(N=C2NC3(CCCCC3)Cc3ccccc32)c(=O)n(-c2ccccc2)n1C`, in the assay on Escherichia coli, the AC50 is > 150 µM (inactive).

On to `O=[N+]([O-])c1ccc(CN2CC=C(c3ccccc3)CC2)cc1`, for which the AC50 in [4] is 178 µM (active).

For the molecule `OCCN1CCN(C(S)=Nc2ccc(Oc3ccccc3)cc2)CC1`, the concentration at half-maximal activity (AC50) with Escherichia coli was 82.3 µM (active).

On to `CN(C)CCCN(C(=O)c1cc(-c2cccs2)nc2ccccc12)c1nc2ccc(F)cc2s1`, for which the EC50 in assay [5] was > 60 µM (not active); in [6], 12.2 µM (active); in [7], 8.08 µM (active). For the same molecule, in assay [8], the CC50 was 25.1 µM (active). Besides, the AC50 on CAAX prenyl protease 2 was 29 µM (active).

For the molecule `CC(C)c1onc(C(=O)N2CCN(C(c3ccccc3)c3ccccc3)CC2)c1[N+](=O)[O-]`, the EC50 in the assay on BJ [9] was 0.621 µM (inconclusive); in [10], 3.16 µM (active); in the assay on BJ [11], 14.4 µM (inconclusive); in the assay with BJ [12], > 150 µM (not active); in [13] it was 2.69 µM (active); with BJ [14], 5.72 µM (active).

As for `O=C(NCCN1CCC(n2c(=O)[nH]c3ccccc32)CC1)c1cc([N+](=O)[O-])cc([N+](=O)[O-])c1`, the results for the IC50 on Phospholipase D1 and on Phospholipase D2 were 0.27 µM (active) and 1.32 µM (active), respectively.

As to `O=C(NCCN1CCC(n2c(=O)[nH]c3ccccc32)CC1)Nc1cccc(F)c1`, the IC50 is 0.078 µM (active) at Phospholipase D1 and 2.3 µM (active) at Phospholipase D2.

Take `COc1ccc(/C=C2\CCC/C(=C\C=N\N(C)C)C2=O)cc1`: in assay [8], the CC50 was 9.83 µM (active). Further, the AC50 in [1] was 25 µM (active); in assay [3] it was 20.8 µM (active). Moreover, on Nonstructural protein 1, the IC50 was 50.6 µM (active).
